Experimental data published in paper PMC2377083, “IDN 5390: an oral taxane candidate for protracted treatment schedules” (British Journal of Cancer, 2003).
Values after ≈ are worked out from the molar mass of the structure shown.

Columns and labels:
[1] = test system: A2780 (human ovarian carcinoma); assay: Antiproliferative activity, A2780; assay type: cell-based; conditions: 72 h treatment, cell counting, mean±s.d., three experiments
Protocol: (§1) Drugs were dissolved in DMSO and freshly diluted in medium before use. The antiproliferative activity was evaluated on A2780 (human ovarian carcinoma) and its derived drug-resistant cell lines (A2780/DX, A2780/DDP), IGROV-1/Pt1 (human ovarian carcinoma), GBM (human glioblastoma) and MX-1 (human mammary carcinoma). All cell lines, except MX-1, were maintained in RPMI 1640 (Bio-Whittaker, Verviers, Belgium) supplemented with 10% fetal calf serum (Life Technologies, Gaithersburg, MD, USA). MX-1 cells were maintained in McCoy's medium (Life Technologies, Gaithersburg, MD, USA) supplemented with 10% fetal calf serum. For experiments, all cell lines were seeded into six-well plates in duplicate and treated, 24 or 72 h (only MX-1 cells) after seeding, with solvent or different concentrations of taxanes. Adherent cells were counted 72 h after the beginning of treatment, by a cell counter (Coulter Electronics, Luton, UK) or detected by the Sulforhodamine B colorimetric assay (only GBM cells). The IC50 was defined as the drug concentration causing a 50% decrease in cell number over that of untreated controls.

tubulin = assay: Tubulin polymerisation assay in IGROV-1/Pt1 cells; assay type: cell-based, human; conditions: 24 h
Protocol: For tubulin polymerisation assay, IGROV-1/Pt1 cells were treated with PTX or IDN 5390 at the indicated concentrations for 24 h. Cells were then processed as previously described ([Cassinelli et al, 2001]) in order to separate cellular fractions containing soluble cytosolic or polymerised cytoskeletal tubulin. Samples were electrophoresed by sodium dodecyl sulphate (SDS)–PAGE (10% resolving gel and 3% stacking gel) and blotted onto nitrocellulose membranes. The distribution of tubulin was analysed by immunoblotting, using a rabbit polyclonal antitubulin antibody (BioMakor, Revohot, Israel).

[2] = test system: A2780/DDP ovarian tumour xenograft; assay: Antitumour activity on A2780/DDP xenograft; conditions: for Tox/Tot: toxic deaths/total mice
Protocol: All the experiments were carried out using female athymic nude CD-1 mice, 8–11 weeks old (Charles River, Calco, Italy). The mice were maintained in laminar flow rooms with constant temperature and humidity.
Taxanes were dissolved by adding absolute ethanol and Cremophor ELP (both 5% of the final volume), in that sequence, on a magnetic stirrer. […] After dilution, the drug solutions were always kept on ice. […] (Milano, Italy) and, just before use, it was diluted, by slowly adding 0.9% NaCl and occasionally stirring the solution (final Polysorbate 80: 10%, v v^−1). […] When higher doses were to be given, larger volumes were injected.
Tumour lines were maintained in vivo by successive s.c. transplants of tumour fragments in animal flanks.
For chemotherapy experiments, tumour fragments (about 2 × 2 × 2 mm), obtained from tumour lines, were implanted s.c. Each control or drug-treated group included five or six mice bearing bilateral s.c. tumours. Tumours were implanted on day 0, and tumour growth was followed by biweekly measurements of tumour diameters with a vernier caliper. Tumour weight (TW) was calculated according to the formula: TW (mg)=tumour volume (mm^3)=d^2 × D/2, where d and D are the shortest and the longest diameter, respectively. Different treatment routes (i.v., s.c. or p.o.) and schedules (daily or intermittent) were investigated. […] Control mice were injected with the solvent solution.
Experimental groups were eliminated when mean TW was about 1.5±0.5 g, or after 100 days.
For statistical analysis, tumour weights in different groups of treated mice were compared on day of TWI% evaluation, by Student's t-test (two-tailed). P⩽0.05 was considered significant.
The tolerability of the compound was assessed in tumour-bearing mice as follows: (a) lethal toxicity, that is, any death in treated mice without or with small (⩽300 mg) tumours, or occurring before any control death; (b) body weight loss % (BWL%)=100–(BW on day x/BW on day 1 × 100), where x represents a day after or during the treatment period. The maximal BWL values are reported; and (c) vesicant toxicity defined as the appearance of ulcers and/or inflammation at the injection site where the drugs were delivered s.c.

bFGF = bFGF expression in GBM cells, immunoblotting; conditions: 72 h at IC80: IDN 5390 40, PTX 17 ng ml^−1
[3] = test system: MX-1 (human mammary carcinoma); assay: Antiproliferative activity, MX-1; assay type: cell-based; conditions: 72 h treatment, cell counting, mean±s.d., three experiments
Protocol: as §1

[4] = test system: IGROV-1/Pt (human ovarian carcinoma); assay: Antiproliferative activity, IGROV-1/Pt; assay type: cell-based
Protocol: as §1

[5] = s.c., qd × 5/w × 2w, 120 mg kg^−1

For `CC(=O)O[C@@]1([C@@H]2/C(C)=C(/O)C(=O)C3=C(C)[C@@H](OC(=O)[C@H](O)[C@H](CC(C)C)NC(=O)OC(C)(C)C)C[C@@](O)([C@H]2OC(=O)c2ccccc2)C3(C)C)CO[C@@H]1CCO` [IDN 5390, 13-(N-Boc-β-isobutylisoserinyl)-10β-dehydro-C-seco-10-deacetylbaccatin III], which IC50 [1] is on record?
Its IC50 is 0.023 ± 0.0004 µg/mL (≈ 0.0292 µM).

And the tubulin polymerisation (tubulin; equitoxic concentrations (IC80): IDN 5390 300, PTX 100 ng ml^−1)?
Its tubulin polymerisation is “comparable extent of tubulin polymerisation”.

And the tubulin polymerisation (tubulin; same concentration (100 ng ml^−1), vs PTX)?
The tubulin polymerisation was “less effective than the parent drug”.

What about the “LCK (1 g)” value ([2]; i.v., q4d × 4, 90 mg kg^−1) of the same molecule?
Its value is 0.2.

And the “Max BWL (%)” value ([2]; i.v., q4d × 4, 90 mg kg^−1)?
Its value is 0%.

What about the “Max TWI%” value ([2]; i.v., q4d × 4, 90 mg kg^−1, day 18, start at tumour weight about 100 mg) of the same molecule?
The value was 17 (18) %.

And the Tox/Tot ([2]; i.v., q4d × 4, 90 mg kg^−1)?
The Tox/Tot was 0/5.

What about the “LCK (1 g)” value ([2]; i.v., q4d × 4, 120 mg kg^−1) of the same molecule?
The value was 0.3.

And the “Max BWL (%)” value ([2]; i.v., q4d × 4, 120 mg kg^−1)?
Its value is 3%.

And the “Max TWI%” value ([2]; i.v., q4d × 4, 120 mg kg^−1, day 18)?
Its value is 46 (18) %.

What about the Tox/Tot ([2]; i.v., q4d × 4, 120 mg kg^−1) of the same molecule?
Its Tox/Tot is 0/5.

And the “LCK (1 g)” value [2, 5]?
Its value is 1.8.

What about the “Max BWL (%)” value [2, 5] of the same molecule?
The value was 2.5%.

What about the “Max TWI%” value ([2]; s.c., qd × 5/w × 2w, 120 mg kg^−1, day 27) of the same molecule?
The value was 92 (27) %.

What about the Tox/Tot [2, 5] of the same molecule?
The Tox/Tot was 0/5.

What about the bFGF expression (bFGF) of the same molecule?
The bFGF expression was “downregulated”.

What about the IC50 [3] of the same molecule?
Its IC50 is 0.0345 ± 0.0078 µg/mL (≈ 0.0438 µM).

What about the IC50 ([4]; IGROV-1, 72 h treatment, cell counting, mean±s.d., three experiments) of the same molecule?
The IC50 was 0.0615 ± 0.0045 µg/mL (≈ 0.0781 µM).

And the IC80 ([4]; IGROV-1/Pt cells, read-out: IC80 (equitoxic concentration))?
Its IC80 is 0.3 µg/mL (≈ 0.381 µM).
